How the values were obtained:
[1] = test system: wheat (Triticum aestivum) cv. Balitus; test: Root and shoot dry weight and total chlorophyll content of wheat under drought stress conditions (Example 2); type: in vivo
Protocol: To investigate the effect of the combinations on the weight parameters, and the total content of chlorophyll, seeds of wheat (Triticum aestivum) cv. Balitus were sown in a hydroponic growing system (Araponics, Liege, Belgium) using Hoagland's solution (control). Twenty days after sowing plants (except for control plants) were sprayed by either MTU (10 μM) or by nitrogen utilization enhancers alone or with a combination of MTU (10 μM) and nitrogen utilization enhancers. The plants were grown in a glasshouse at 20-28° C. under a combination of natural and artificial light. Since the treatment (20 days after sowing), the plants received low water doses. […] The root dry weight (RDW), shoot dry weight (SDW), and total chlorophyll content (TCC) of at least 25 plants were measured at the end of the experiment—45 days after the plants had been sown. RDW and SDW were recorded after drying the plants at 70° C. for 2 days. The chlorophyll content of each plant was measured by SPAD meter reading at the end of the experiment and TCC was calculated as SPAD value per SDW.

[2] = test system: wheat (Triticum aestivum) cv. Balitus; test: Root and shoot dry weight and leaf nitrogen content of hydroponically grown wheat under optimal conditions (Example 1); type: in vivo
Protocol: To investigate the effect of the combinations on the weight parameters, the seeds of wheat (Triticum aestivum) cv. Balitus were sown in a hydroponic growing system (Araponics, Liege, Belgium) using Hoagland's solution (control). Twenty days after sowing, plants (except for control plants) were sprayed by aqueous solution of either MTU (10 μM) or by a nitrogen utilization enhancer alone or by a combination of MTU (10 μM) with the nitrogen utilization enhancer. The plants were grown in the Czech Republic in a glasshouse at 16-25° C. under natural and artificial light during the winter period. The root dry weight (RDW), shoot dry weight (SDW) and the nitrogen content in the leaves of at least 30 plants were measured 45 days after the plants had been sown. RDW and SDW were recorded after drying the plants at 70° C. for 2 days.

Compound	RDW % of control ([1]; concentration 250 mg/L)	RDW (root dry weight) ([1]; concentration 250 mg/L) [g]	SDW % of control ([1]; concentration 250 mg/L)	SDW (shoot dry weight) ([1]; concentration 250 mg/L) [g]	Nitrogen content in the leaves ([2]; concentration 250 mg/L) [weight %]	RDW % of control ([2]; concentration 250 mg/L)	RDW (root dry weight) ([2]; concentration 250 mg/L) [g]	SDW % of control ([2]; concentration 250 mg/L)	SDW (shoot dry weight) ([2]; concentration 250 mg/L) [g]	RDW % of control ([1]; concentration 100 mg/L)	RDW (root dry weight) ([1]; concentration 100 mg/L) [g]	SDW % of control ([1]; concentration 100 mg/L)	SDW (shoot dry weight) ([1]; concentration 100 mg/L) [g]	RDW % of control ([2]; concentration 100 mg/L)	RDW (root dry weight) ([2]; concentration 100 mg/L) [g]	SDW % of control ([2]; concentration 100 mg/L)	SDW (shoot dry weight) ([2]; concentration 100 mg/L) [g]	other results
C[N+](C)(C)CC(=O)[O-] [Glycine betaine, glycine betaine]																		RDW % of control ([1]; concentration 5 g/L): +4.5%; RDW (root dry weight) ([1]; concentration 5 g/L): 0.70 g; SDW % of control ([1]; concentration 5 g/L): +7.4%; SDW (shoot dry weight) ([1]; concentration 5 g/L): 1.31 g; TCC % (total chlorophyll content) ([1]; concentration 5 g/L): 110%
O=C(O)[C@@H]1CCCN1 [Proline, proline]	+7.5%	0.72	+4.9%	1.28	4.69	+7.5%	0.86	+3.3%	1.57									
NC(=O)CC[C@H](N)C(=O)O [glutamine]	+16.4%	0.78	+11.5%	1.36	4.59	+12.5%	0.90	+6.6%	1.62	+10.4%	0.74	+7.4%	1.31	+10.0%	0.88	+5.3%	1.60	
N[C@@H](CC(=O)O)C(=O)O [Aspartic acid, aspartic acid]	+14.9%	0.77	+3.3%	1.26	4.53	+15.0%	0.92	−1.3%	1.50									
NCCCC(=O)O [GABA, γ-aminobutyric acid]																		Nitrogen content in the leaves ([2]; concentration 200 mg/L): 4.82 weight %; RDW % of control ([2]; concentration 200 mg/L): +5.0%; RDW (root dry weight) ([2]; concentration 200 mg/L): 0.84 g; SDW % of control ([2]; concentration 200 mg/L): +4.6%; SDW (shoot dry weight) ([2]; concentration 200 mg/L): 1.59 g
CC(=O)N1CSCC1C(=O)O (centres unmarked) [NATCA, N-acetyl thiazolidine 4-carboxylic acid]										+11.9%	0.75	+9.8%	1.34	+12.5%	0.9	+7.2%	1.63	Nitrogen content in the leaves ([2]; concentration 100 mg/L): 4.77 weight %
N[C@@H](CCC(=O)O)C(=O)O [Glutamic acid, glutamic acid]	+19.4%	0.8	+3.3%	1.26	4.56	+15.0%	0.92	+3.9%	1.58	+9.0%	0.73	+4.1%	1.27	+6.3%	0.85	+2.0%	1.55	
